{
  "source": "patent US20230085263A1",
  "about": "“TASTEFUL NATURAL SWEETENER AND FLAVOR” (EPC Natural Products Co., Ltd., priority 2018, published 2023)",
  "key": {"[1]": {"assay": "Kinetics of reaction in dependence of pH-conditions: degradation of Phe and Reb-A, Gluc, Xyl, Suc (HPLC/MS)", "settings": "KH2PO4 Buffer, 1.0 h, 120° C.; for Degradation: reaction of Phe and Gluc; for % formation from degraded Phe: reaction of Phe and Suc, n.d. = not detected", "protocol": "All samples were analyzed by HPLC/MS using following conditions.\nThe mobile phase consisted of (A) 0.1% HCOOH (v/v) and (B) AcCN. A gradient of 5% (B) to 15% (B) was applied between 0 min to 15 min. Between 15 and 20 min (B) was increased to 45% which was kept for 5 min. Detection consisted of UV/VIS-DAD (205 nm, 254 nm, 450 nm) coupled to ESI-MS (pos mode, 300° C., TIC from m/z 120-1200, fragmentor 100).\nQuantitative Evaluation was Performed Using External Standardization."}, "[2]": {"assay": "Sensory evaluation of combinations of NHDC, EPCalin (Thaumatin) and Combination of GSGs and SGs in water (Example 234)", "assay_type": "in vivo", "settings": "4.5 ppm Thaumatin and/or 50 ppm GSGs and SGs", "description": "4.5 ppm Thaumatin (equivalent to 10 ppm EPCalin) were dissolved in water. Increasing amounts of NHDC (1-5 ppm) were added to the solution and the sensory properties were evaluated.\n50 ppm (GSGs and SGs) were dissolved in water. Increasing amounts of NHDC (1-5 ppm) were added to the solution and the sensory properties were evaluated.\n50 ppm (GSGs and SGs) and 4.5 ppm Thaumatin (equivalent to 10 ppm EPCalin) were dissolved in water. Increasing amounts of NHDC (1-5 ppm) were added to the solution and the sensory properties were evaluated.\nSweetness intensity was rated on 5-point scale"}, "[3]": {"assay": "Stevia-derived MRPs with NHDC and Thaumatin in Red Bull sugarfree (Example 240)", "assay_type": "in vivo", "settings": "150 μl of sample in 100 ml Redbull sugar free", "description": "Stevia-derived MRPs (Reference): 0.67 g xylose, 0.33 g phenylalanine and 4 g Stevia extract TSG95 were dissolved in 2.5 g deionized water. The solution was heated at about 100° C. for 2 h. After the reaction was complete, the slurry was diluted with 25 g water.\n(§1) Stevia-derived MRPs by Combination of GSGs and SGs: 0.67 g xylose, 0.33 g phenylalanine, 4 g SGA (Combination of GSGs and SGs) were dissolved in 2.5 g deionized water. The solution was heated at about 100° C. for 2 h. After the reaction was complete, the slurry was diluted with 25 g water.\nas §1, with “SGs and NHDC:” for “SGs:”, “SGs) and 3 ppm (=82.5 μg) NHDC” for “SGs)”, “in” for “in 2.5 g deionized”\nas §1, with “by SGA (Combination” for “by Combination”, “and SGs), NHDC and Thaumatin:” for “and SGs:”, “and SGs), 3 ppm (=82.5 μg) NHDC and 5 ppm (=302.5 μg EPCalin 45%) Thaumatin” for “and SGs)”\n150 μl of the each sample was added to 100 ml Redbull sugar free and mixed. The taste profiles of the samples were compared. […]"}, "[4]": {"assay": "Assay to test reducing power (iron-III reduction test for anti-oxidant potential)", "assay_type": "physicochemical", "settings": "combinations of amino acids and Reb-A, 100° C., 0, 2.5 or 5.0 hours, diluted 1:10", "description": "Assay to Test Reducing Power\n0.2 M Sodium phosphate buffer, pH=6.6; 500 mg Potassium ferric(III)cyanide/50 mL water, 10% Trichloroacetic acid; 20 mg Iron-III-Chloride/20 mL water; Calibration samples were prepared with Ascorbic acid in a concentration of 0-100 μg/mL 0.2 M Sodium phosphate buffer, pH=6.6 (freshly prepared); as negative control sample water was used.\nSamples in aqueous solution were used as such or diluted in 0.2 M Sodium phosphate buffer, pH=6.6.\nA 1 mL sample (or calibration standard) was mixed with 1 mL 0.2 M Sodium phosphate buffer, pH=6.6 and 1 mL Potassium ferricyanide solution. The sample was incubated and protected from light at 50° C. for 20 min.\nTo the solution was added 1 mL Trichloroacetic acid with thorough mixing.\nA 1 mL of the mixture was diluted with 1 mL H2O and 0.2 mL Iron-Ill-chloride and reacted for 10 minutes; The absorbance was then determined at 700 nm against H2O.\n10 mM of amino acid and/or 10 mM sugar were dissolved in 10 ml 0.1 mM KH2PO4-buffer, pH=7.8. […]\n1 ml sample (or calibration standard) solution) was mixed with 0.2 M Sodium phosphate buffer (pH=6.6) and 1 ml Potassium ferric(III)cyanide solution in water (1% w/v) and incubated at 50° C. for 20 minutes. […] The sample was incubated for 10 minutes and absorbance read at 700 nm against a water control. […]\nQuantification was performed by linear regression of calibration test results for ascorbic acid. […]"}, "[5]": {"assay": "DPPH radical-scavenging activity (DPPH test for anti-oxidant potential)", "assay_type": "physicochemical", "settings": "combinations of amino acids and Reb-A, 100° C., 0, 2.5 or 5.0 hours, diluted 1:10", "description": "Assay to Rest DPPH Radical-Scavenging Activity\n1 mg 1,1-Diphenyl-2-picrylhydrazyl radical (DPPH)/ml ethanol, dilution to assay concentration were prepared in ethanol (40 μg/mL); Calibration samples were prepared with Ascorbic acid in a concentration of 0-10 μg/mL; as a negative control sample, water was used.\nSamples in aqueous solution were used as such or diluted with water.\nA 0.1 ml sample (or calibration standard) was mixed with 3.9 ml solution of DPPH° (100 μMolar) and reacted while protected from light at room temperature for 30 min. Absorbance was determined at 517 nm against ethanol.\n10 mM of amino acid and/or 10 mM sugar were dissolved in 10 ml 0.1 mM KH2PO4-buffer, pH=7.8.\nThe samples were kept at 100° C. in sealed glass vials (Pyrex 15 ml with screw caps) for 0 (before reaction), 2.5 or 5.0 hours. Thereafter the samples were transferred to an ice water bath and cooled down to room temperature. These samples were diluted 1:10 and used for the test assay for anti-oxidant potential. […]\n0.2 ml sample (or calibration standard) solution was mixed with 0.2 ml solution of DPPH° (0.1 mM) and 3.6 ml methanol. […] After 3 minutes the absorbance at 517 nm was obtained against ethanol. Quantification was performed by linear regression of calibration test results for ascorbic acid. […]"}, "[6]": {"assay": "Degree of kokumi with thickeners carrageenan, gellan gum, Tamarind gum (Examples 168-170)", "design": "species or system people", "settings": "in vivo", "description": "Carrageenan was added to pure water to prepare several carrageenan solutions with a concentration gradient as standard solutions for judging the degree of kokumi of the carrageenan solutions. […] Method: For evaluation of the degree of kokumi, the sample solutions (described above) were tested by a panel of four people. […] The tester was allowed to re-taste, and then made judgment. […] Gellan gum was added to pure water to prepare several gellan gum solutions with a concentration gradient as standard solutions for judging the degree of kokumi of the gellan gum solutions. […] Method: For evaluation of the degree of kokumi, the sample solutions (described above) were tested by a panel of four people. […] The tester was allowed to re-taste, and then made judgment. […] Tamarind gum was added to pure water to prepare several Tamarind gum solutions with a concentration gradient as standard solutions for judging the degree of kokumi of the Tamarind gum solutions. […] Method: For evaluation of the degree of kokumi, the sample solutions (described above) were tested by a panel of four people. […] The tester was allowed to re-taste, and then made judgment."}},
  "note": "“Also recorded” adds a separate entry of the source.",
  "data": [
    {"molecule": "NC(Cc1ccccc1)C(=O)O", "note": "(single isomer, unassigned) [Phe]", "values": [
      {"measurement": "Degradation", "setting": "[1]; pH = 5.5", "value": 2.26},
      {"measurement": "Degradation", "setting": "[1]; pH = 7.0", "value": 2.18},
      {"measurement": "Degradation", "setting": "[1]; pH = 8.5", "value": 4.24}
    ]},
    {"molecule": "OC[C@H]1OC(O)[C@H](O)[C@@H](O)[C@@H]1O", "note": "(stereo partly shown) [Glu]", "values": [
      {"measurement": "Degradation", "setting": "[1]; pH = 5.5", "value": 3.65},
      {"measurement": "Degradation", "setting": "[1]; pH = 7.0", "value": 4.6},
      {"measurement": "Degradation", "setting": "[1]; pH = 8.5", "value": 7.62}
    ]},
    {"molecule": "O=C(O)[C@H](Cc1ccccc1)NCC(=O)[C@@H](O)[C@H](O)[C@H](O)CO", "note": "[MRI (Phe-Glu)]", "values": [
      {"measurement": "% formation from degraded Phe", "setting": "[1]; pH = 5.5", "value": "<0.10", "unit": "%"},
      {"measurement": "% formation from degraded Phe", "setting": "[1]; pH = 7.0", "value": 0.54, "unit": "%"},
      {"measurement": "% formation from degraded Phe", "setting": "[1]; pH = 8.5", "value": 0.84, "unit": "%"}
    ]},
    {"molecule": "COc1ccc(CCC(=O)c2c(O)cc(O[C@@H]3O[C@H](CO)[C@@H](O)[C@H](O)[C@H]3O[C@@H]3O[C@@H](C)[C@H](O)[C@@H](O)[C@H]3O)cc2O)cc1O", "note": "[NHDC, Neohesperidin dihydrochalcone]", "values": [
      {"measurement": "sensory properties (sweetness, onset, lingering, mouth-feel)", "setting": "[2]", "value": "long lasting lingering; also recorded: boosts the lingering"},
      {"measurement": "taste profile in sugarfree beverage", "setting": "[3]", "value": "improved the mouth-feel and harmony of taste impression yielding a substantially improved taste profile"}
    ]},
    {"molecule": "C=C1C[C@@]23CC[C@H]4[C@@](C)(CCC[C@@]4(C)C(=O)O[C@@H]4O[C@H](CO)[C@@H](O)[C@H](O)[C@H]4O)[C@@H]2CC[C@]1(O[C@@H]1O[C@H](CO)[C@@H](O)[C@H](O[C@@H]2O[C@H](CO)[C@@H](O)[C@H](O)[C@H]2O)[C@H]1O[C@@H]1O[C@H](CO)[C@@H](O)[C@H](O)[C@H]1O)C3", "note": "[Reb-A, Rebaudioside A]", "values": [
      {"measurement": "anti-oxidant properties (active iron-III reduction)", "setting": "[4]", "value": "substantial anti-oxidant properties"},
      {"measurement": "anti-oxidant properties (radical scavenging)", "setting": "[5]", "value": "substantial anti-oxidant properties"}
    ]},
    {"molecule": "Tamarind gum", "values": [
      {"measurement": "concentration above which taste like starch paste can be clearly felt", "setting": "[6]", "value": "exceeds 1400 ppm"}
    ]},
    {"molecule": "carrageenan", "values": [
      {"measurement": "concentration above which taste like starch paste can be clearly felt", "setting": "[6]", "value": "exceeds 1000 ppm"}
    ]},
    {"molecule": "gellan gum", "values": [
      {"measurement": "concentration above which taste like starch paste can be clearly felt", "setting": "[6]", "value": "exceeds 1400 ppm"}
    ]}
  ]
}
